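A five-concentration, 48-hour dose response in 96-well plates underlies each endpoint, interpolated linearly between surrounding concentrations. GI50 marks 50% less growth. The concentration for full growth arrest is given as TGI.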
Assays:
Experiment in all cases: growth of human tumour cells (NCI), 48 h
786-0 renal = test system: 786-0 renal
A498 renal = test system: A498 renal
A549 NSCLC = test system: A549 NSCLC
ACHN renal = test system: ACHN renal
BT-549 breast = test system: BT-549 breast
CAKI-1 renal = test system: CAKI-1 renal
CCRF-CEM leukemia = test system: CCRF-CEM leukemia
COLO 205 colon = test system: COLO 205 colon
DU-145 prostate = test system: DU-145 prostate
EKVX NSCLC = test system: EKVX NSCLC
HCC-2998 colon = test system: HCC-2998 colon
HCT-116 colon = test system: HCT-116 colon
HCT-15 colon = test system: HCT-15 colon
HL-60(TB) leukemia = test system: HL-60(TB) leukemia
HOP-62 NSCLC = test system: HOP-62 NSCLC
HOP-92 NSCLC = test system: HOP-92 NSCLC
HS 578T breast = test system: HS 578T breast
HT29 colon = test system: HT29 colon
IGROV1 ovarian = test system: IGROV1 ovarian
K-562 leukemia = test system: K-562 leukemia
KM12 colon = test system: KM12 colon
LOX IMVI melanoma = test system: LOX IMVI melanoma
M14 melanoma = test system: M14 melanoma
MALME-3M melanoma = test system: MALME-3M melanoma
MCF7 breast = test system: MCF7 breast
MDA-MB-231 breast = test system: MDA-MB-231 breast
MDA-MB-435 = test system: MDA-MB-435
MOLT-4 leukemia = test system: MOLT-4 leukemia
NCI-H226 lung = test system: NCI-H226 lung
NCI-H23 lung = test system: NCI-H23 lung
NCI-H460 lung = test system: NCI-H460 lung
NCI-H522 lung = test system: NCI-H522 lung
NCI/ADR-RES ovarian = test system: NCI/ADR-RES ovarian
OVCAR-3 ovarian = test system: OVCAR-3 ovarian
OVCAR-4 ovarian = test system: OVCAR-4 ovarian
OVCAR-5 ovarian = test system: OVCAR-5 ovarian
OVCAR-8 ovarian = test system: OVCAR-8 ovarian
PC-3 prostate = test system: PC-3 prostate
RPMI-8226 leukemia = test system: RPMI-8226 leukemia
RXF 393 renal = test system: RXF 393 renal
SF-268 CNS = test system: SF-268 CNS
SF-295 CNS = test system: SF-295 CNS
SF-539 CNS = test system: SF-539 CNS
SK-MEL-2 melanoma = test system: SK-MEL-2 melanoma
SK-MEL-28 melanoma = test system: SK-MEL-28 melanoma
SK-MEL-5 melanoma = test system: SK-MEL-5 melanoma
SK-OV-3 ovarian = test system: SK-OV-3 ovarian
SN12C renal = test system: SN12C renal
SNB-19 CNS = test system: SNB-19 CNS
SNB-75 CNS = test system: SNB-75 CNS
SW-620 colon = test system: SW-620 colon
T-47D breast = test system: T-47D breast
TK-10 renal = test system: TK-10 renal
U251 CNS = test system: U251 CNS
UACC-257 melanoma = test system: UACC-257 melanoma
UACC-62 melanoma = test system: UACC-62 melanoma
UO-31 renal = test system: UO-31 renal
SR leukemia = test system: SR leukemia

With `CS(=O)(=O)Nc1cccc(-c2cc(-c3ccccc3Cl)c(C#N)c(N)n2)c1` the GI50 (786-0 renal) was 803 nM, the TGI (786-0 renal) was 14.4 µM and the GI50 (A498 renal) was 669 nM. It also gave a TGI (A498 renal) of 14.4 µM, a GI50 (A549 NSCLC) of 655 nM and a TGI (A549 NSCLC) of 16.6 µM. It also gave a GI50 (ACHN renal) of 679 nM, a TGI (ACHN renal) of 17.6 µM and a GI50 (BT-549 breast) of 532 nM. It also gave a TGI (BT-549 breast) of 15.4 µM, a GI50 (CAKI-1 renal) of 502 nM and a TGI (CAKI-1 renal) of 24.4 µM. The GI50 (CCRF-CEM leukemia) was 562 nM, the TGI (CCRF-CEM leukemia) was > 82.4 µM and the GI50 (COLO 205 colon) was 472 nM. For the same compound, the TGI (COLO 205 colon) was 4.88 µM, the GI50 (DU-145 prostate) was 1170 nM and the TGI (DU-145 prostate) was 13 µM. For the same compound, the GI50 (EKVX NSCLC) was 2380 nM, the TGI (EKVX NSCLC) was 21.4 µM and the GI50 (HCC-2998 colon) was 1360 nM. For the same compound, the TGI (HCC-2998 colon) was 8.52 µM, the GI50 (HCT-116 colon) was 448 nM and the TGI (HCT-116 colon) was 11.8 µM. The GI50 (HCT-15 colon) was 402 nM, the TGI (HCT-15 colon) was 15.8 µM and the GI50 (HL-60(TB) leukemia) was 361 nM. It also gave a TGI (HL-60(TB) leukemia) of 13.4 µM, a GI50 (HOP-62 NSCLC) of 558 nM and a TGI (HOP-62 NSCLC) of 16.6 µM. The GI50 (HOP-92 NSCLC) was 1110 nM, the TGI (HOP-92 NSCLC) was 16 µM and the GI50 (HS 578T breast) was 321 nM. The TGI (HS 578T breast) was 6.62 µM, the GI50 (HT29 colon) was 389 nM and the TGI (HT29 colon) was 11.9 µM. It also gave a GI50 (IGROV1 ovarian) of 769 nM, a TGI (IGROV1 ovarian) of 22.6 µM and a GI50 (K-562 leukemia) of 344 nM. The TGI (K-562 leukemia) was > 100 µM, the GI50 (KM12 colon) was 443 nM and the TGI (KM12 colon) was 13.1 µM. For the same compound, the GI50 (LOX IMVI melanoma) was 531 nM, the TGI (LOX IMVI melanoma) was 17.4 µM and the GI50 (M14 melanoma) was 464 nM. It also gave a TGI (M14 melanoma) of 14.6 µM, a GI50 (MALME-3M melanoma) of 3.23 µM and a TGI (MALME-3M melanoma) of 25 µM. It also gave a GI50 (MCF7 breast) of 478 nM, a TGI (MCF7 breast) of 14.3 µM and a GI50 (MDA-MB-231 breast) of 712 nM. It also gave a TGI (MDA-MB-231 breast) of 15.5 µM, a GI50 (MDA-MB-435) of 165 nM and a TGI (MDA-MB-435) of 1760 nM. The GI50 (MOLT-4 leukemia) was 894 nM, the TGI (MOLT-4 leukemia) was > 51.5 µM and the GI50 (NCI-H226 lung) was 10.2 µM. For the same compound, the TGI (NCI-H226 lung) was 32.3 µM, the GI50 (NCI-H23 lung) was 651 nM and the TGI (NCI-H23 lung) was 19.5 µM. For the same compound, the GI50 (NCI-H460 lung) was 417 nM, the TGI (NCI-H460 lung) was 11.5 µM and the GI50 (NCI-H522 lung) was 294 nM. The TGI (NCI-H522 lung) was 3.89 µM, the GI50 (NCI/ADR-RES ovarian) was 552 nM and the TGI (NCI/ADR-RES ovarian) was > 22.2 µM. The GI50 (OVCAR-3 ovarian) was 298 nM, the TGI (OVCAR-3 ovarian) was 2800 nM and the GI50 (OVCAR-4 ovarian) was 1920 nM. For the same compound, the TGI (OVCAR-4 ovarian) was 35.6 µM, the GI50 (OVCAR-5 ovarian) was 3.22 µM and the TGI (OVCAR-5 ovarian) was 19.9 µM. It also gave a GI50 (OVCAR-8 ovarian) of 1050 nM, a TGI (OVCAR-8 ovarian) of 19.9 µM and a GI50 (PC-3 prostate) of 531 nM. It also gave a TGI (PC-3 prostate) of 14.1 µM, a GI50 (RPMI-8226 leukemia) of 702 nM and a TGI (RPMI-8226 leukemia) of 27.5 µM. The GI50 (RXF 393 renal) was 328 nM, the TGI (RXF 393 renal) was 2270 nM and the GI50 (SF-268 CNS) was 1050 nM. It also gave a TGI (SF-268 CNS) of 19.1 µM, a GI50 (SF-295 CNS) of 411 nM and a TGI (SF-295 CNS) of 12.9 µM. It also gave a GI50 (SF-539 CNS) of 361 nM, a TGI (SF-539 CNS) of 2720 nM and a GI50 (SK-MEL-2 melanoma) of 602 nM. The TGI (SK-MEL-2 melanoma) was 15.8 µM, the GI50 (SK-MEL-28 melanoma) was 1220 nM and the TGI (SK-MEL-28 melanoma) was 19.9 µM. It also gave a GI50 (SK-MEL-5 melanoma) of 448 nM, a TGI (SK-MEL-5 melanoma) of 13.6 µM and a GI50 (SK-OV-3 ovarian) of 737 nM. For the same compound, the TGI (SK-OV-3 ovarian) was 13.8 µM, the GI50 (SN12C renal) was 722 nM and the TGI (SN12C renal) was 24.4 µM. The GI50 (SNB-19 CNS) was 859 nM, the TGI (SNB-19 CNS) was 19.6 µM and the GI50 (SNB-75 CNS) was 239 nM. It also gave a TGI (SNB-75 CNS) of 2.44 µM, a GI50 (SW-620 colon) of 425 nM and a TGI (SW-620 colon) of 16.7 µM. For the same compound, the GI50 (T-47D breast) was 695 nM, the TGI (T-47D breast) was 14.6 µM and the GI50 (TK-10 renal) was 1150 nM. It also gave a TGI (TK-10 renal) of 18.5 µM, a GI50 (U251 CNS) of 531 nM and a TGI (U251 CNS) of 15.4 µM. For the same compound, the GI50 (UACC-257 melanoma) was 500 nM, the TGI (UACC-257 melanoma) was 21.4 µM and the GI50 (UACC-62 melanoma) was 510 nM. The TGI (UACC-62 melanoma) was 15.5 µM, the GI50 (UO-31 renal) was 984 nM and the TGI (UO-31 renal) was 17.4 µM.

In the case of `COc1ccc(C(=O)/C=C/c2cc3c(c(OC)c2)OCC(=O)N3)cc1`, the GI50 (786-0 renal) is reported as 3360 nM, the TGI (786-0 renal) is reported as > 100 µM and the GI50 (DU-145 prostate) is reported as 2740 nM. The TGI (DU-145 prostate) was > 100 µM, the GI50 (HCT-15 colon) was 1920 nM and the TGI (HCT-15 colon) was > 100 µM. The GI50 (HOP-62 NSCLC) was 3730 nM, the TGI (HOP-62 NSCLC) was > 100 µM and the GI50 (HOP-92 NSCLC) was 1270 nM. The TGI (HOP-92 NSCLC) was 17.7 µM, the GI50 (HS 578T breast) was 3630 nM and the TGI (HS 578T breast) was > 100 µM. For the same compound, the GI50 (MCF7 breast) was 2320 nM, the TGI (MCF7 breast) was > 100 µM and the GI50 (MDA-MB-435) was 3110 nM. The TGI (MDA-MB-435) was > 100000 nM, the GI50 (NCI-H226 lung) was 3.88 µM and the TGI (NCI-H226 lung) was > 100 µM. The GI50 (NCI/ADR-RES ovarian) was 3140 nM, the TGI (NCI/ADR-RES ovarian) was > 100 µM and the GI50 (OVCAR-8 ovarian) was 2850 nM. For the same compound, the TGI (OVCAR-8 ovarian) was > 100 µM, the GI50 (SF-268 CNS) was 3420 nM and the TGI (SF-268 CNS) was > 100 µM. For the same compound, the GI50 (SF-295 CNS) was 4570 nM, the TGI (SF-295 CNS) was > 100 µM and the GI50 (SK-MEL-5 melanoma) was 2880 nM. The TGI (SK-MEL-5 melanoma) was > 100 µM, the GI50 (SNB-19 CNS) was 3260 nM and the TGI (SNB-19 CNS) was > 100 µM. For the same compound, the GI50 (SNB-75 CNS) was 1660 nM, the TGI (SNB-75 CNS) was 11.5 µM and the GI50 (SR leukemia) was 1050 nM. For the same compound, the TGI (SR leukemia) was > 100 µM.

From PubChem BioAssay (NCI)
